Some results are limits rather than exact numbers.

Format in all cases: cell-based
For test [1], the system named is HTT (exclusion transcript). Put plainly: RT-qPCR assay to quantify changes in HTT splice isoforms: exclusion transcript. The settings on record: Homo sapiens, SK-N-SH cells, approximately 96 hours, GAPDH reference. As for the experimental part: (§1) SK—N—SH cells were seeded at 8.5e3 per well in a 96 well plate, in […] (×4 plates, quadruplicate) and treated with the indicated compounds at different concentrations with a final DMSO concentration of 0.5%. Vehicle controls were set up by diluting DMSO 1:200. Cells were returned to a humidified incubator at 37° C., 5% CO2 and treated for approximately 96 hours.
(§2) RNA was isolated from each well using QIAGEN RNeasy mini columns (cat #74004) as per the manufacturer's instructions. Each condition was done in quadruplicate as mentioned above to allow for adequate starting template for downstream analyses. These quadruplicates were pooled (by condition) into single replicates at the cell lysis step. Reverse-transcription was done using the Applied Biosystems High-Capacity cDNA Reverse Transcription Kit (cat #4368814), per the manufacturer's instructions, using approximately half of the harvested RNA. The cDNA was diluted 1:10 in nuclease-free water, and qPCR was done using Applied Biosystems PowerUp SYBR Green Master Mix (cat #A25742) per the manufacturer's instructions. Cycling conditions are primers are detailed below. Each sample was run in technical duplicates.
(§3) Data were analyzed using the 2-DDCT method. GAPDH was used as the reference gene, and vehicle (i.e. DMSO only) treated cells were used as the reference/untreated cell populations. Relative expression of the HTT transcripts was plotted using Graphpad Prism.
Background: Real-time PCR tracks product formation cycle by cycle.

Test [2] concerns HTT (inclusion transcript). In words: RT-qPCR assay to quantify changes in HTT splice isoforms: inclusion transcript. The settings on record: Homo sapiens, SK-N-SH cells, approximately 96 hours, GAPDH reference. How it is done:
as §1, §2, §3

The subject of a further test is HTT. Put plainly: Mini-gene reporter assay-HTT (firefly luciferase, exon inclusion). The settings on record: Homo sapiens; HTT mini-gene firefly luciferase reporter transiently transfected into HEK293 cells. The method in brief:
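HEK293 cells transiently transfected with a pcDNA3.1 mini-gene carrying the alternatively skipped exon with flanking introns and exons fused to firefly luciferase were incubated with compound, in duplicate. Exon inclusion raises luciferase luminescence. EC50 came from Levenberg-Marquardt curve fitting.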
Background: A reporter such as luciferase makes a cellular process visible.

In the case of `Cc1cn2cc(-c3ccc(-c4ccc(C5CN(C(C)C)C5)nn4)c(O)c3)cc(F)c2n1` [Compound 15, 5-{8-fluoro-2-methylimidazo[1,2-a]pyridin-6-yl}-2-{6-[1-(propan-2-yl)azetidin-3-yl]pyridazin-3-yl}phenol], the half-maximal effective concentration (EC50) is less than 50 nM in test [1], less than 50 nM in test [2] and 50 to 500 nM in the test with HTT.

In the case of `CC(C)N1CC(c2ccc(-c3ccc(-c4ccc5nn(C)cc5c4)cc3O)nn2)C1` [Compound 23, 2-(6-(1-isopropylazetidin-3-yl)pyridazin-3-yl)-5-(2-methyl-2H-indazol-5-yl)phenol], the values for the EC50 (in test [1]; in test [2]; in the test with HTT) were less than 50 nM, more than 1000 nM and not below 1000 nM, respectively.

For `Cc1cn2cc(-c3ccc(-c4ccc(C5CN(C)C5)nn4)c(O)c3)cc(C(F)(F)F)c2n1` [Compound 26, 5-[2-methyl-8-(trifluoromethyl)imidazo[1,2-a]pyridin-6-yl]-2-[6-(1-methylazetidin-3-yl)pyridazin-3-yl]phenol], the figures for the EC50 (in test [1]; in test [2]; in the test on HTT) were 50 to 500 nM, 500 to 1000 nM and not below 1000 nM, respectively.

On to `COc1cc(-c2ccc(-c3ccc(C4CN(C)C4)nn3)c(O)c2)cc2cn(C)nc12` [Compound 28, 5-(7-methoxy-2-methyl-2H-indazol-5-yl)-2-[6-(1-methylazetidin-3-yl)pyridazin-3-yl]phenol], for which the EC50 in test [1] was less than 50 nM; in test [2], 500 to 1000 nM; with HTT, 50 to 500 nM.

With `CCN1CC(c2ccc(-c3ccc(-c4ccc5nc(C)cn5n4)cc3O)nn2)C1` [Compound 38, 2-[6-(1-ethylazetidin-3-yl)pyridazin-3-yl]-5-{2-methylimidazo[1,2-b]pyridazin-6-yl}phenol], the EC50 in test [1] is less than 50 nM; in test [2], more than 1000 nM; with HTT it was 50 to 500 nM.

As a reminder, the EC50 is the concentration that produces a half-maximal response.

For the origin of these results see patent US20250042879A1, “HETEROCYCLIC SUBSTITUTED 1,3,4-THIADIAZOLE AND PYRIDAZINE COMPOUNDS AND METHODS OF USING THE SAME” (Rgenta Therapeutics, Inc., priority 2021, published 2025).
